Assay results published in ChEMBL document CHEMBL1201862, “PubChem BioAssay data set” (2004).
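Each compound was tested at five concentrations against cells in 96-well plates for 48 hours. GI50 marks 50% less growth.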 Active and inactive are the calls of the source. No stated cut-off is given here; in the data, active = GI50 up to about 1.1 µM and inactive = higher.

Tests used:
Assay in all cases: growth of human tumour cells (NCI), 48 h
CCRF-CEM = system: CCRF-CEM
K562 = system: K562
HCT-116 = system: HCT-116
UO-31 = system: UO-31
SF-539 = system: SF-539
RXF 393 = system: RXF 393
SN12C = system: SN12C
KM12 = system: KM12
SK-MEL-5 = system: SK-MEL-5
UACC-257 = system: UACC-257
SK-OV-3 = system: SK-OV-3
UACC-62 = system: UACC-62
HOP-18 = system: HOP-18
NCI-H522 = system: NCI-H522
NCI-H460 = system: NCI-H460
SW-620 = system: SW-620
SF-295 = system: SF-295
SF-268 = system: SF-268
NCI-H226 = system: NCI-H226
HOP-92 = system: HOP-92
M19-MEL = system: M19-MEL
IGROV-1 = system: IGROV-1
DMS-273 = system: DMS-273
HCT-15 = system: HCT-15
SNB-78 = system: SNB-78
LOX IMVI = system: LOX IMVI
EKVX = system: EKVX
MOLT-4 = system: MOLT-4
SK-MEL-28 = system: SK-MEL-28
Malme-3M = system: Malme-3M
OVCAR-5 = system: OVCAR-5
A549 = system: A549
CAKI-1 = system: CAKI-1
OVCAR-4 = system: OVCAR-4
U-251 = system: U-251
SNB-75 = system: SNB-75
COLO 205 = system: COLO 205
HT-29 = system: HT-29
XF498 = system: XF498
OVCAR-3 = system: OVCAR-3
SK-MEL-2 = system: SK-MEL-2
SNB-19 = system: SNB-19
OVCAR-8 = system: OVCAR-8
NCI-H23 = system: NCI-H23
NCI/ADR-RES = system: NCI/ADR-RES
A498 = system: A498
DLD-1 = system: DLD-1
HL-60 = system: HL-60
HOP-62 = system: HOP-62
HCC 2998 = system: HCC 2998
KM-20L2 = system: KM-20L2
RPMI-8226 = system: RPMI-8226
DMS-114 = system: DMS-114
MCF7 = system: MCF7
SR = system: SR
786-0 = system: 786-0
ACHN = system: ACHN
TK-10 = system: TK-10
M14 = system: M14
LXFL 529 = system: LXFL 529

Measured: GI50

CNC(=O)OCc1nc(SC)n(C)c1CO
inactive: CCRF-CEM > 100 µM | K562 > 100 µM | HCT-116 > 100 µM | UO-31 > 100 µM | SF-539 > 100 µM | RXF 393 > 100 µM | SN12C > 100 µM | KM12 > 100 µM | SK-MEL-5 > 100 µM | UACC-257 > 100 µM | SK-OV-3 > 100 µM | UACC-62 > 100 µM | HOP-18 > 79.3 µM | NCI-H522 > 100 µM | NCI-H460 > 100 µM | SW-620 > 100 µM | SF-295 > 100 µM | SF-268 > 100 µM | NCI-H226 > 100 µM | HOP-92 > 100 µM | M19-MEL > 100 µM | IGROV-1 > 100 µM | DMS-273 > 100 µM | SNB-78 > 100 µM | LOX IMVI > 100 µM | EKVX > 100 µM | MOLT-4 > 100 µM | SK-MEL-28 > 100 µM | Malme-3M 1.68 µM | OVCAR-5 > 100 µM | A549 > 100 µM | CAKI-1 > 100 µM | OVCAR-4 > 100 µM | U-251 > 100 µM | SNB-75 > 100 µM | COLO 205 > 100 µM | HT-29 > 100 µM | XF498 > 100 µM | OVCAR-3 > 100 µM | SK-MEL-2 > 46.9 µM | SNB-19 > 100 µM | OVCAR-8 > 100 µM | NCI-H23 > 100 µM | NCI/ADR-RES > 100 µM | A498 > 100 µM | DLD-1 > 100 µM | HL-60 > 100 µM | HOP-62 > 100 µM | HCC 2998 > 100 µM | KM-20L2 > 100 µM | RPMI-8226 > 100 µM | DMS-114 > 100 µM | MCF7 > 100 µM
> 100 µM: HCT-15

CC1=NC2(C(=O)O)C3(C(=O)O)N=C(C)OC3(C(F)(F)F)C2(C(F)(F)F)O1 (stereo not drawn)
inactive: CCRF-CEM > 100 µM | K562 > 100 µM | SR > 100 µM | HCT-116 > 100 µM | UO-31 > 100 µM | 786-0 > 100 µM | SF-539 > 100 µM | RXF 393 > 100 µM | SN12C > 100 µM | KM12 > 100 µM | UACC-257 > 100 µM | SK-OV-3 > 100 µM | UACC-62 > 100 µM | HOP-18 > 100 µM | NCI-H522 > 100 µM | NCI-H460 > 100 µM | SW-620 > 100 µM | SF-295 > 100 µM | SF-268 > 100 µM | NCI-H226 > 100 µM | HOP-92 > 100 µM | M19-MEL > 100 µM | IGROV-1 > 100 µM | DMS-273 > 100 µM | SNB-78 > 100 µM | LOX IMVI > 100 µM | ACHN > 100 µM | TK-10 > 100 µM | EKVX > 100 µM | MOLT-4 > 100 µM | SK-MEL-28 > 100 µM | Malme-3M > 100 µM | OVCAR-5 > 100 µM | A549 > 100 µM | CAKI-1 > 100 µM | M14 > 100 µM | OVCAR-4 > 100 µM | U-251 > 100 µM | SNB-75 > 100 µM | COLO 205 > 100 µM | HT-29 > 100 µM | XF498 > 100 µM | OVCAR-3 > 100 µM | SK-MEL-2 > 100 µM | SNB-19 > 100 µM | OVCAR-8 > 100 µM | NCI-H23 > 100 µM | A498 > 100 µM | DLD-1 > 100 µM | HL-60 > 100 µM | HOP-62 > 100 µM | HCC 2998 > 100 µM | KM-20L2 > 100 µM | DMS-114 > 100 µM
> 10 µM: HCT-15

C[C@]12CCC3[C@@H](CCC45OC4C(=O)CC[C@]35C)C1Cc1cnn(-c3ccc(F)cc3)c1N2 (stereo partly drawn)
17.5 µM: HCT-15
inactive: CCRF-CEM 21.3 µM | K562 20.9 µM | SR 27.2 µM | HCT-116 15.3 µM | UO-31 87.9 µM | 786-0 18.6 µM | RXF 393 27.9 µM | SN12C 23.3 µM | KM12 25.1 µM | SK-MEL-5 31.5 µM | UACC-257 35.9 µM | SK-OV-3 58.1 µM | UACC-62 19.7 µM | HOP-18 37 µM | NCI-H522 15 µM | NCI-H460 28.6 µM | SW-620 31.8 µM | SF-295 39 µM | SF-268 23.6 µM | NCI-H226 33.4 µM | M19-MEL 34.3 µM | DMS-273 18.8 µM | SNB-78 25.6 µM | LOX IMVI 16.7 µM | ACHN 33.6 µM | TK-10 > 100 µM | LXFL 529 32.8 µM | EKVX 49.9 µM | MOLT-4 22.9 µM | SK-MEL-28 26.6 µM | Malme-3M > 100 µM | A549 65.5 µM | M14 48.6 µM | OVCAR-4 > 10 µM | U-251 28.4 µM | SNB-75 38.6 µM | COLO 205 40.5 µM | HT-29 17.3 µM | XF498 31.8 µM | SK-MEL-2 29.9 µM | SNB-19 27.2 µM | OVCAR-8 29.8 µM | NCI-H23 22.2 µM | HL-60 17.6 µM | HOP-62 29.6 µM | KM-20L2 22.6 µM | RPMI-8226 19.5 µM | DMS-114 19.4 µM
